Test results: patent publication US12084472B2 (Ardelyx, Inc., priority 2015, dated 2024)

target: T1, human TGR5 (Homo sapiens, UniProt Q8TDU6); test: Cell-based TGR5 assay (cAMP generation, HTRF); conditions: HEK293 cells stably transfected with human TGR5; cAMP by HTRF; 30 minutes at 37° C.; read-out: pEC50 Human TGR5 (converted)
T1 construct: expressed in transfected cells; host or cells: HEK293
T1 sequence (Q8TDU6 1-330): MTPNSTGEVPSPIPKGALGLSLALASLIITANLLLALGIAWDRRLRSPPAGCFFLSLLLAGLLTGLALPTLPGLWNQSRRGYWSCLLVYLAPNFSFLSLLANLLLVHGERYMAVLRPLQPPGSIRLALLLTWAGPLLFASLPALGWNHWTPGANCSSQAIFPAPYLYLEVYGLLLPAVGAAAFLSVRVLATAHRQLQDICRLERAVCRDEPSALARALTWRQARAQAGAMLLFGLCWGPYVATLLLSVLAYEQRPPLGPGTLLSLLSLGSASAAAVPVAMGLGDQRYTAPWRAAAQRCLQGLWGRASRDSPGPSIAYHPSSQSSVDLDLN
In short: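 Read-out was HTRF detection of cAMP, converted to concentration via a standard curve and fitted (3-parameter logistic) for pEC50 and maximal response. Agonist stimulation used HEK293 cells stably transfected with human TGR5, incubated 30 min at 37° C in IBMX-containing buffer at 0.05 nM to 10 μM compound.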

SMILES | EC50 [µM]
Clc1ccc(C2CC2)cc1COC1(c2cnccc2-c2ccccc2OC2CC2)CC1 [Compound I-53, 3-{1-[(2-chloro-5-cyclopropylphenyl)methoxy]cyclopropyl}-4-(2-cyclopropoxyphenyl)pyridine] | < 0.1
O=C(CCCCc1cc(Cl)c(COC2(c3cnccc3-c3ccccc3OC3CC3)CC2)cc1Cl)NCCCN1CCN(CCCNC(=O)CCCCc2cc(Cl)c(COC3(c4cnccc4-c4ccccc4OC4CC4)CC3)cc2Cl)CC1 [Compound I-101, 5-[2,5-dichloro-4-({1-[4-(2-cyclopropoxyphenyl)pyridin-3-yl]cyclopropoxy}methyl)phenyl]-N-{3-[4-(3-{5-[2,5-dichloro-4-({1-[4-(2-cyclopropoxyphenyl)pyridin-3-yl]cyclopropoxy}methyl)phenyl]pentanamido}propyl)piperazin-1-yl]propyl}pentanamide] | 1.26 to 10
CC(CCCC(=O)N(CC(N)=O)C[C@H](O)[C@@H](O)[C@H](O)[C@H](O)CO)c1ccc(Cl)c(CNC2(c3cnccc3-c3ccccc3OC3CC3)CC2)c1 (stereo partly drawn) [Compound I-332, N-(carbamoylmethyl)-5-{4-chloro-3-[({1-[4-(2-cyclopropoxyphenyl)pyridin-3-yl]cyclopropyl}amino)methyl]phenyl}-N-[(2S,3R,4R,5R)-2,3,4,5,6-pentahydroxyhexyl]hexanamide] | < 0.1
O=C(NCCCCSc1ccc(Cl)c(COC2(c3cnccc3-c3ccccc3OC3CC3)CC2)c1)N[C@H]1CC[C@@H](NC(=O)NC[C@H](O)[C@@H](O)[C@H](O)[C@H](O)CO)CC1 [Compound I-635, 1-(4-{[4-chloro-3-({1-[4-(2-cyclopropoxyphenyl)pyridin-3-yl]cyclopropoxy}methyl)phenyl]sulfanyl}butyl)-3-[(1s,4s)-4-({[(2S,3R,4R,5R)-2,3,4,5,6-pentahydroxyhexyl]carbamoyl}amino)cyclohexyl]urea] | < 0.1
Cc1ccc(C(C)CCCCNC(=O)NC[C@H](O)[C@@H](O)[C@H](O)[C@H](O)CO)cc1CNC1(c2cnccc2-c2ccccc2OC2CC2)CC1 (stereo partly drawn) [Compound I-272, 1-(5-{3-[({1-[4-(2-cyclopropoxyphenyl)pyridin-3-yl]cyclopropyl}amino)methyl]-4-methylphenyl}hexyl)-3-[(2S,3R,4R,5R)-2,3,4,5,6-pentahydroxyhexyl]urea] | < 0.1
O=C([C@@H](O)[C@@H](O)[C@H](O)[C@@H](O)CO)N(CCCCO)CCCCSc1ccc(Cl)c(CNC2(c3cnccc3-c3ccccc3OC3CC3)CC2)c1 [Compound I-534, (2S,3S,4R,5S)-N-[4-({4-chloro-3-[({1-[4-(2-cyclopropoxyphenyl)pyridin-3-yl]cyclopropyl}amino)methyl]phenyl}sulfanyl)butyl]-2,3,4,5,6-pentahydroxy-N-(4-hydroxybutyl)hexanamide] | < 0.1
CC(CCCCN(CCOCCO)C(=O)NC[C@H](O)[C@@H](O)[C@H](O)[C@H](O)CO)c1ccc(Cl)c(CNC2(c3cnccc3-c3ccccc3OC3CC3)CC2)c1 (stereo partly drawn) [Compound I-270, 1-(5-{4-chloro-3-[({1-[4-(2-cyclopropoxyphenyl)pyridin-3-yl]cyclopropyl}amino)methyl]phenyl}hexyl)-1-[2-(2-hydroxyethoxy)ethyl]-3-[(2S,3R,4R,5R)-2,3,4,5,6-pentahydroxyhexyl]urea] | < 0.1
Cc1ccc(C(C)CCCC(=O)N(CC(=O)N(C)C)C[C@H](O)[C@@H](O)[C@H](O)[C@H](O)CO)cc1CNC1(c2cnccc2-c2ccccc2OC2CC2)CC1 (stereo partly drawn) [Compound I-364, 5-{3-[({1-[4-(2-cyclopropoxyphenyl)pyridin-3-yl]cyclopropyl}amino)methyl]-4-methylphenyl}-N-[(dimethylcarbamoyl)methyl]-N-[(2S,3R,4R,5R)-2,3,4,5,6-pentahydroxyhexyl]hexanamide] | 0.126 to 1
CC(CCCC(=O)O)c1ccc(Cl)c(CNC2(c3cnccc3-c3ccccc3OC3CC3)CC2)c1 (single isomer, unassigned) [Compound I-248] | < 0.1
CS(=O)(=O)NCCCCN(CCCCSc1ccc(Cl)c(COC2(c3cnccc3-c3ccccc3OC3CC3)CC2)c1)C(=O)[C@@H](O)[C@@H](O)[C@H](O)[C@@H](O)CO [Compound I-570, (2S,3S,4R,5S)-N-(4-{[4-chloro-3-({1-[4-(2-cyclopropoxyphenyl)pyridin-3-yl]cyclopropoxy}methyl)phenyl]sulfanyl}butyl)-2,3,4,5,6-pentahydroxy-N-(4-methanesulfonamidobutyl) hexanamide] | < 0.1
C[C@H](CCCCC(=O)N(C)C[C@H](O)[C@@H](O)[C@H](O)[C@H](O)CO)c1ccc(Cl)c(CNC2(c3cnccc3-c3ccccc3OC3CC3)CC2)c1 (single isomer, unassigned) [Compound I-329] | < 0.1
CN(CCCCNC(=O)NC[C@H](O)[C@@H](O)[C@H](O)[C@H](O)CO)S(=O)(=O)c1ccc(C(F)(F)F)c(CNC2(c3cnccc3-c3ccccc3OC3CC3)CC2)c1 [Compound I-468, 1-(4-{N-methyl3-[({11-[4-(2-cyclopropoxyphenyl)pyridin-3-yl]cyclopropyl}amino)methyl]-4-(trifluoromethyl)benzenesulfonamido}butyl)-3-[(2S,3R,4R,5R)-2,3,4,5,6-pentahydroxyhexyl]urea] | 0.126 to 1
Cc1ccc(C(CO)CCCNC(=O)NC[C@H](O)[C@@H](O)[C@H](O)[C@H](O)CO)cc1CNC1(c2cnccc2-c2ccccc2OC2CC2)CC1 (stereo partly drawn) [Compound I-387, 1-(4-{3-[({1-[4-(2-cyclopropoxyphenyl)pyridin-3-yl]cyclopropyl}amino)methyl]-4-methylphenyl}-5-hydroxypentyl)-3-[(2S,3R,4R,5R)-2,3,4,5,6-pentahydroxyhexyl]urea] | 0.126 to 1

Next, values leading:

EC50 [µM] | SMILES
< 0.1 | Cc1ccc(S(=O)(=O)N(C)CCCCNC(=O)NC[C@H](O)[C@@H](O)[C@H](O)[C@H](O)CO)cc1COC1(c2cnccc2-c2ccccc2OC2CC2)CC1 [Compound I-479, 1-{4-[N-methyl3-({1-[4-(2-cyclopropoxyphenyl)pyridin-3-yl]cyclopropoxy}methyl)-4-methylbenzenesulfonamido]butyl}-3-[(2S,3R,4R,5R)-2,3,4,5,6-pentahydroxyhexyl]urea]
< 0.1 | O=C(CCCCc1ccc(Cl)c(COC2(c3cnccc3-c3ccccc3OC3CC3)CC2)c1)NC[C@H](O)[C@@H](O)[C@H](O)[C@H](O)CO (stereo in doubt) [Compound I-231, 5-[4-chloro-3-({1-[4-(2-cyclopropoxyphenyl)pyridin-3-yl]cyclopropoxy}methyl)phenyl]-N-[(2S,3R,4R,5R)-2,3,4,5,6-pentahydroxyhexyl]pentanamide]
< 0.1 | O=C(CCCCc1cc(Cl)c(COC2(c3cnccc3-c3ccccc3OC3CC3)CC2)cc1Cl)N1CCN(C[C@H](O)[C@@H](O)[C@H](O[C@@H]2O[C@H](CO)[C@H](O)[C@H](O)[C@H]2O)[C@H](O)CO)CC1 [Compound I-103, 5-[2,5-dichloro-4-({1-[4-(2-cyclopropoxyphenyl)pyridin-3-yl]cyclopropoxy}methyl)phenyl]-1-{4-[(2S,3R,4R,5R)-2,3,5,6-tetrahydroxy-4-{[(2S,3R,4S,5R,6R)-3,4,5-trihydroxy-6-(hydroxymethyl)oxan-2-yl]oxy}hexyl]piperazin-1-yl}pentan-1-one]
< 0.1 | CN(C[C@H](O)[C@@H](O)[C@H](O)[C@H](O)CO)C(=O)NS(=O)(=O)NCCCCc1cc(Cl)c(COC2(c3cnccc3-c3ccccc3OC3CC3)CC2)cc1Cl (stereo in doubt) [Compound I-194, 1-({4-[2,5-dichloro-4-({1-[4-(2-cyclopropoxyphenyl)pyridin-3-yl]cyclopropoxy}methyl)phenyl]butyl}sulfamoyl)-3-methyl-3-[(2S,3R,4R,5R)-2,3,4,5,6-pentahydroxyhexyl]urea]
< 0.1 | N[C@@H](CCCCNS(=O)(=O)c1ccc(COC2(c3cnccc3-c3ccccc3OC3CC3)CC2)c(Cl)c1)C(=O)O [Compound I-484, (S)-2-amino-6-(3-chloro-4-((1-(4-(2-cyclopropoxyphenyl)pyridine-3-yl)cyclopropoxy)methyl)phenylsulfonamido)hexanoic acid]
< 0.1 | O=C(NCCCCc1cc(Cl)c(COC2(c3cnccc3-c3ccccc3OC3CC3)CC2)cc1Cl)[C@@H](O)[C@@H](O)[C@H](O)[C@@H](O)CN1CCOCC1 (stereo in doubt) [Compound I-179, (2S,3S,4R,5S)-N-{4-[2,5-dichloro-4-({1-[4-(2-cyclopropoxyphenyl)pyridin-3-yl]cyclopropoxy}methyl)phenyl]butyl}-2,3,4,5-tetrahydroxy-6-(morpholin-4-yl)hexanamide]
< 0.1 | O=C([C@@H](O)[C@@H](O)[C@H](O)[C@@H](O)CO)N(CCCCO)CCCCCSc1ccc(Cl)c(COC2(c3cnccc3-c3ccccc3OC3CC3)CC2)c1 [Compound I-605, (2S,3S,4R,5S)-N-(5-{[4-chloro-3-({1-[4-(2-cyclopropoxyphenyl)pyridin-3-yl]cyclopropoxy}methyl)phenyl]sulfanyl}pentyl)-2,3,4,5,6-pentahydroxy-N-(4-hydroxybutyl)hexanamide]
0.126 to 1 | O=C(NCCCCNS(=O)(=O)c1ccc(Cl)c(COC2(c3c[n+]([O-])ccc3-c3ccccc3OC3CC3)CC2)c1)[C@@H](O)[C@@H](O)[C@H](O)[C@@H](O)CO [Compound I-775, 3-(1-((2-chloro-5-(N-(4-((2S,3S,4R,5S)-2,3,4,5,6-pentahydroxyhexanamido)butyl)sulfamoyl)benzyl)oxy)cyclopropyl)-4-(2-cyclopropoxyphenyl)pyridine 1-oxide]
